The source of these data is patent US7128926B2, “Ester compound and use thereof” (Incorporated Administrative Agency, National Agriculture …, priority 2002, dated 2006).

SMILES strings stand for the structures.

The test system of the assay is adult males of Pseudococcus cryptus. The assay is described as follows: Biological assay of attracting activity using Petri dish (Table 1). The assay is classed as in vivo. As for the experimental part: Biological Assay of Attracting Activity Using Petri Dish […] First, two square filter papers with an area of 1 cm^2 were placed on a Petri dish with a diameter of 90 mm. Thereafter, one paper was impregnated with each of sample solutions (shown in Tables 1 and 2) (100 μl of a stock solution in the case of each fraction shown in Table 1 and a crude extract shown in Table 2, and 10 μl of a stock solution in the case of an acetylated product shown in Table 2), and it was defined as a treated group. The other paper was impregnated with only a solvent (100 μl), and it was defined as a control group. […] The Petri dish was then capped. Approximately 10 to 60 minutes later, when the movement of the males stopped, the presence or absence of attracting activity was confirmed from the ratio of males attracted to each filter paper.

For the molecule `C=C(C)CC(=O)OCC1CC(C(=C)C)C1(C)C` (stereo not shown) [formula (I), 3-isopropenyl-2,2-dimethylcyclobutylmethyl 3-methyl-3-butenoate], the “attracting activity towards adult males of Pseudococcus cryptus (in words)” value is listed as “activity of attracting adult males of Pseudococcus cryptus”.
